Our source for the GI50 and TGI values is PubChem BioAssay (NCI).

“And” between values parts separate entries of the source, which are not always exact repeats. Equal entries are not always repeated.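 These data come from cells grown in 96-well plates and exposed to compound for 48 hours at five concentrations. GI50: concentration for 50% inhibition of growth. At the TGI there is no net growth.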

Some test systems named below: COLO 205 colon; HOP-62 NSCLC; NCI-H522 lung; NCI/ADR-RES ovarian; PC-3 prostate; SK-OV-3 ovarian; SN12C renal; U251 CNS; UACC-257 melanoma.
Common to all, as to experiment: NCI-60 cell line screen, 48 h

For the compound `CN1CCN(CC(=O)N2c3cccc4cccc(c34)N(C(=O)CN3CCN(C)CC3)C2c2cn(-c3ccccc3)nc2-c2cccc([N+](=O)[O-])c2)CC1`, the GI50 is 1.84 µM in the test with COLO 205 colon; 2.02 µM in the test with HOP-62 NSCLC; 1.92 µM with NCI-H522 lung; 3.68 µM in the test with NCI/ADR-RES ovarian; 2.8 µM in the test on PC-3 prostate; 2.11 µM with SK-OV-3 ovarian. The GI50 with SN12C renal is 1.99 µM; with U251 CNS, 1.9 µM; with UACC-257 melanoma, 1.86 µM. Further, the TGI stood at 3.82 µM with COLO 205 colon; 5.52 µM in the test with HOP-62 NSCLC; 4.13 µM in the test on NCI-H522 lung; 14.3 µM in the test on NCI/ADR-RES ovarian; 10.4 µM in the test on PC-3 prostate; 4.6 µM in the test with SK-OV-3 ovarian. Moreover, the TGI with SN12C renal was 4.28 µM; in the test with U251 CNS, 4 µM; in the test with UACC-257 melanoma, 3.69 µM.

As for `C=C[C@H]1C=Cc2c(OC)cccc2[C@@H]1COP1(=S)NC(C)C(c2ccccc2)O1` (some centres not stated), the TGI in the test with COLO 205 colon, in the test with HOP-62 NSCLC, with NCI-H522 lung, in the test with SK-OV-3 ovarian, in the test with SN12C renal and with U251 CNS was greater than 100 µM throughout.

`Cc1ccccc1NC(=O)c1ccc([N+](=O)[O-])cc1`: the TGI in the test with COLO 205 colon, with HOP-62 NSCLC, with NCI-H522 lung, in the test with SK-OV-3 ovarian, in the test with SN12C renal and with U251 CNS was greater than 100 µM in each case. Further, in the test on UACC-257 melanoma, the TGI is greater than 100 µM.

Take `c1ccc2c(c1)[nH]c1c2ncc2[nH]c3ccccc3c21`: the TGI in the test on COLO 205 colon stood at 6.83 µM; in the test on HOP-62 NSCLC it was 19.4 µM; in the test on NCI-H522 lung, 21 µM; in the test on SK-OV-3 ovarian, 28.7 µM; in the test with SN12C renal, 13.6 µM; with U251 CNS it was 5.64 µM.

Take `CCCCCCNCCCNc1c2ccccc2nc2cccc([N+](=O)[O-])c12`: the TGI was 0.0149 µM and 0.0415 µM with COLO 205 colon; 0.0773 µM and 0.0374 µM in the test on HOP-62 NSCLC; 0.0421 µM in the test with NCI-H522 lung; 1.66 µM and 2.8 µM in the test on NCI/ADR-RES ovarian; 0.0878 µM and 0.393 µM in the test on PC-3 prostate; 0.278 µM and 0.39 µM with SK-OV-3 ovarian. For the same compound, the TGI is 0.12 µM with SN12C renal; 0.0966 µM and 0.116 µM with U251 CNS; 0.252 µM and 0.261 µM in the test on UACC-257 melanoma. Also, the GI50 in the test on NCI/ADR-RES ovarian is 0.54 µM; in the test with UACC-257 melanoma, 0.059 µM.

On to `Nc1c2ccccc2nc2ccccc12` (tested in a mixture with another compound), for which the GI50 with COLO 205 colon is 0.753 µM; with HOP-62 NSCLC, 1.54 µM; in the test on NCI-H522 lung, 1.17 µM; with NCI/ADR-RES ovarian, 1.74 µM; in the test with PC-3 prostate, 2.44 µM; in the test on SK-OV-3 ovarian, 2.39 µM. The GI50 with SN12C renal was 1.53 µM; in the test with U251 CNS it was 2.68 µM; in the test on UACC-257 melanoma, 1.87 µM. The TGI in the test with COLO 205 colon was found to be 2.08 µM; in the test with HOP-62 NSCLC it was 4.01 µM; with NCI-H522 lung it was 2.73 µM; in the test with NCI/ADR-RES ovarian, 6 µM; in the test with PC-3 prostate, 11.1 µM; with SK-OV-3 ovarian, 10.5 µM. Also, the TGI in the test on SN12C renal was 12.2 µM; in the test on U251 CNS, 10.9 µM; in the test with UACC-257 melanoma, 4.48 µM.

In the case of `Cc1c(CC/C(=N\Nc2ccc([N+](=O)[O-])cc2[N+](=O)[O-])c2ccccc2)c2ccccc2n1C`, the TGI in the test with COLO 205 colon, in the test with HOP-62 NSCLC, with NCI-H522 lung, in the test with SK-OV-3 ovarian, in the test with SN12C renal and with U251 CNS was greater than 100 µM each time. The compound further displayed a TGI with UACC-257 melanoma greater than 100 µM.

On to `C[C@@H]1OCC2(CCN(c3cnc(Sc4ccnc(N)c4Cl)c(N)n3)CC2)[C@@H]1N`, for which the GI50 was greater than 100 µM in the test on COLO 205 colon; 14.2 µM with HOP-62 NSCLC; 7.98 µM with NCI-H522 lung; greater than 100 µM with NCI/ADR-RES ovarian; greater than 100 µM in the test on PC-3 prostate; 1.04 µM in the test on SK-OV-3 ovarian. The GI50 in the test on SN12C renal was 27.7 µM; in the test on U251 CNS, 9.48 µM; in the test with UACC-257 melanoma it was greater than 100 µM. The TGI with COLO 205 colon, in the test on HOP-62 NSCLC, in the test on NCI-H522 lung, in the test with NCI/ADR-RES ovarian, with PC-3 prostate and with SK-OV-3 ovarian was greater than 100 µM each time. The TGI in the test on SN12C renal, with U251 CNS and in the test on UACC-257 melanoma was greater than 100 µM each time.

With `COc1cc(N2CCC(N3CCN(C)CC3)CC2)ccc1Nc1ncc(Cl)c(Nc2ccccc2S(=O)(=O)C(C)C)n1`, the GI50 in the test with COLO 205 colon was 0.114 µM; in the test on HOP-62 NSCLC, 0.414 µM; in the test with NCI-H522 lung, 0.525 µM; in the test with NCI/ADR-RES ovarian, 1.29 µM; with PC-3 prostate, 2.16 µM; with SK-OV-3 ovarian, 1.83 µM. For the same compound, the GI50 in the test on SN12C renal is 0.613 µM; in the test with U251 CNS, 1 µM; in the test on UACC-257 melanoma, 1.23 µM. Besides, the TGI in the test with COLO 205 colon was found to be 0.469 µM; in the test on HOP-62 NSCLC, 7.98 µM; with NCI-H522 lung, 2.03 µM; in the test with NCI/ADR-RES ovarian it was 5.75 µM; in the test with PC-3 prostate, 11.7 µM; with SK-OV-3 ovarian, 4.02 µM. Besides, the figures for the TGI in the test on SN12C renal, in the test on U251 CNS and with UACC-257 melanoma were 14.2 µM, 2.4 µM and 2.58 µM, respectively.

As for `CC(CN)[C@@H]1CC[C@]2(CO)CC[C@]3(C)[C@H](CC[C@@H]4[C@@]5(C)CCC(N)C(C)(C)[C@@H]5CC[C@]43C)[C@@H]12` (some centres not stated), the GI50 is 1.91 µM in the test on COLO 205 colon; 1.84 µM in the test on HOP-62 NSCLC; 1.81 µM in the test with NCI-H522 lung; 1.74 µM in the test on PC-3 prostate; 1.86 µM in the test with SK-OV-3 ovarian; 1.91 µM with SN12C renal. Further, the GI50 is 1.91 µM in the test with U251 CNS and 1.85 µM in the test with UACC-257 melanoma. The TGI was found to be 3.68 µM with COLO 205 colon; 3.55 µM in the test with HOP-62 NSCLC; 3.45 µM with NCI-H522 lung; 3.31 µM in the test on PC-3 prostate; 3.29 µM in the test on SK-OV-3 ovarian; 3.67 µM with SN12C renal. Further, the TGI in the test with U251 CNS was determined as 3.31 µM; in the test with UACC-257 melanoma, 3.28 µM.

Turning to `COC(=O)C1=C(C)N(NC(N)=O)C(C)(O)C12CCOC2=O` (configuration not stated), the TGI in the test on COLO 205 colon, in the test on HOP-62 NSCLC, with NCI-H522 lung, in the test with SK-OV-3 ovarian, with SN12C renal and with U251 CNS was greater than 100 µM each time. This compound registered a TGI with UACC-257 melanoma greater than 100 µM.
